Measured values taken from PubChem BioAssay (NCI).
Several values for one entry are separate records, joined by “and”; a condition that tells them apart may be missing. Equal values may be shown once.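 Test compounds were applied to cells in 96-well plates for 48 hours at 5 doses. GI50 = concentration required for 50% inhibition of growth. TGI: concentration producing complete growth inhibition.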

What was measured:
Test in all cases: NCI anticancer screen, dose series, 48 h
786-0 renal = test system: 786-0 renal
HCT-15 colon = test system: HCT-15 colon
HT29 colon = test system: HT29 colon
MDA-MB-435 = test system: MDA-MB-435
MDA-N = test system: MDA-N
NCI-H23 lung = test system: NCI-H23 lung
OVCAR-3 ovarian = test system: OVCAR-3 ovarian
PC-3 prostate = test system: PC-3 prostate
T-47D breast = test system: T-47D breast
UACC-257 melanoma = test system: UACC-257 melanoma

SMILES	TGI (786-0 renal) [µM]	TGI (HCT-15 colon)	TGI (HT29 colon)	TGI (MDA-MB-435)	TGI (MDA-N)	TGI (NCI-H23 lung)	TGI (OVCAR-3 ovarian)	TGI (PC-3 prostate) [µM]	TGI (T-47D breast)	TGI (UACC-257 melanoma)	GI50 (HCT-15 colon) [µM]	GI50 (HT29 colon) [µM]	GI50 (MDA-MB-435) [µM]	GI50 (MDA-N) [µM]	GI50 (NCI-H23 lung) [µM]	GI50 (OVCAR-3 ovarian) [µM]	GI50 (PC-3 prostate) [µM]	GI50 (T-47D breast) [µM]	GI50 (UACC-257 melanoma) [µM]
CCCCCCCCCCCCCCCCP(=O)([O-])OCC[N+](C)(C)C	19.9	16.7 µM	25.5 µM	34.2 µM	30 µM	40 µM	31.6 µM	8.66	35.5 µM	32.7 µM	–	–	–	–	–	–	–	–	–
C=CC1(c2ccc(OC)cc2)OCCCO1	> 100	> 100 µM	> 100 µM	> 100 µM	> 100 µM	> 100 µM	> 100 µM	> 100	> 100 µM	> 100 µM	–	–	–	–	–	–	–	–	–
COC(=O)[C@H](CCSC)NC(=O)c1ccc(CNC(=O)/C(C)=C/c2ccccc2)cc1	41.8	> 100 µM	42.7 µM	> 100 µM	> 100 µM	> 100 µM	> 100 µM	> 100	> 100 µM	52.7 µM	–	–	–	–	–	–	–	–	–
CC(/C=N/NC1=NCCCN1)=N\NC1=NCCCN1	> 100	> 100 µM	> 100 µM	> 100 µM	> 100 µM	> 100 µM	> 100 µM	> 100	> 100 µM	> 100 µM	–	–	–	–	–	–	–	–	–
CCN(CC)CCC(=O)c1ccc(Oc2ccc(F)cc2)cc1	28	36.7 µM	38.6 µM	32.3 µM	31.9 µM	45.9 µM	34.5 µM	71.9	42 µM	34 µM	–	–	–	–	–	–	–	–	–
COc1ccc(C[C@@H]2OC3(C=CC(=O)C=C3)O[C@H]2Cc2ccc(OC)cc2)cc1	0.412	0.77 µM	2.18 µM	3.5 µM	1.62 µM	3.53 µM	2.31 µM	3.47	> 100 µM	3.28 µM	–	–	–	–	–	–	–	–	–
CN1C(=O)N(C)C2(CCN(CCCCCCF)CC2)C1=O	> 100	> 100 µM	> 100 µM	71.1 µM	> 100 µM	> 100 µM	> 100 µM	> 100	> 100 µM	> 100 µM	–	–	–	–	–	–	–	–	–
Cc1nc2c(=O)[nH]c3ccc(Cl)cc3c2o1	> 100	> 100 µM	> 100 µM	> 100 µM	> 100 µM	> 100 µM	> 100 µM	> 100	> 100 µM	> 100 µM	–	–	–	–	–	–	–	–	–
C=CC(Br)(CBr)CCC(Br)C(C)C (centres undefined)	2.93	17.9 µM	8.4 µM	33.5 µM	6.37 µM	20.8 µM	8.9 µM	19.5	0.971 µM	24 µM	–	–	–	–	–	–	–	–	–
C#CCCCC(=O)N(C(=O)CS(=O)CC)c1ccccc1 (centres undefined)	> 100	> 100 µM	> 100 µM	> 100 µM	> 100 µM	> 100 µM	> 100 µM	> 100	> 100 µM	> 100 µM	–	–	–	–	–	–	–	–	–
Cc1cc(C)c(N=Nc2c(O)c(S(=O)(=O)O)cc3cc(S(=O)(=O)O)ccc23)cc1C	> 100	> 100 µM	> 100 µM	> 100 µM	> 100 µM	> 100 µM	> 100 µM	> 100	> 100 µM	> 100 µM	–	–	–	–	–	–	–	–	–
CC(=O)C1(O)Cc2c(O)c3c(c(O)c2C(OC2CC(N)C(O)C(C)O2)C1)C(=O)c1ccccc1C3=O (centres undefined)	0.0409	0.52 µM and 0.348 µM	0.432 µM and 0.234 µM	0.389 µM and 0.47 µM	0.404 µM and 0.211 µM	0.12 µM and 0.046 µM	0.987 µM and 0.475 µM	0.741	0.631 µM and 0.219 µM	0.451 µM and 0.324 µM	0.0156	0.0117	0.0674	0.026	< 0.012	0.0375	0.0437	< 0.0145	0.0377
C=CCN1CCC2(CC1)NC(=O)c1ccccc1O2	> 100	> 100 µM	> 100 µM	> 100 µM	> 100 µM	> 100 µM	> 100 µM	> 100	> 100 µM	> 100 µM	–	–	–	–	–	–	–	–	–
CC1=CC(=O)/C(=C/n2c(=S)[nH]c3ccccc32)C(=O)O1	> 100	> 100 µM	> 100 µM	> 100 µM	> 100 µM	> 100 µM	> 100 µM	> 100	> 100 µM	> 100 µM	–	–	–	–	–	–	–	–	–
Cc1sc2nc3n(c(=O)c2c1C)N=C(c1ccc([N+](=O)[O-])cc1)CS3	> 100	> 100 µM	> 100 µM	> 100 µM	> 100 µM	> 100 µM	> 100 µM	> 100	> 100 µM	> 100 µM	–	–	–	–	–	–	–	–	–
OC1c2ccccc2C(O)C2OC12 (centres undefined)	> 100	> 100 µM	> 100 µM	> 100 µM	> 100 µM	> 100 µM	> 100 µM	> 100	> 100 µM	> 100 µM	–	–	–	–	–	–	–	–	–
C=C1c2nc3ccccc3n2C=C(c2ccc(OC)cc2)N1c1ccc(OCCN2CCOCC2)cc1	> 100	> 100 µM	> 100 µM	> 100 µM	> 100 µM	> 100 µM	> 100 µM	> 100	> 100 µM	17.6 µM	–	–	–	–	–	–	–	–	–
CC1(C)c2ccccc2C(O)C12CCC(=O)CC2 (centres undefined)	> 100	> 100 µM	> 100 µM	> 100 µM	> 100 µM	> 100 µM	> 100 µM	> 100	> 100 µM	> 100 µM	–	–	–	–	–	–	–	–	–
COc1ccc2c(c1)-c1[nH]c3ccccc3c1CC2	32.2	29.6 µM	22.9 µM	31.7 µM	31.6 µM	26.9 µM	33.2 µM	29.6	29.1 µM	30.8 µM	–	–	–	–	–	–	–	–	–
C=CCC(SC)C1=C(C)C(=O)c2ccccc21 (centres undefined)	> 10	> 10 µM	> 10 µM	> 10 µM	> 10 µM	> 10 µM	> 10 µM	> 10	> 10 µM	> 10 µM	–	–	–	–	–	–	–	–	–
O=C(O)CC(O)(C(=O)O)C(O)C(=O)O (centres undefined)	> 1000	> 1000 µM	> 1000 µM	> 1000 µM	> 1000 µM	> 1000 µM	> 1000 µM	> 1000	> 1000 µM	> 1000 µM	–	–	–	–	–	–	–	–	–
C=CCC(CNC(=O)OCc1ccccc1)OC(=O)OCc1ccccc1 (centres undefined)	> 100	> 100 µM	> 100 µM	> 100 µM	> 100 µM	> 100 µM	> 100 µM	> 100	> 100 µM	> 100 µM	–	–	–	–	–	–	–	–	–
O=C1OC(=O)C2C1C(c1ccccc1[N+](=O)[O-])C=C(c1ccco1)N2c1ccncc1 (centres undefined)	3.97	12.8 µM	6.13 µM	52.6 µM	18.8 µM	26.2 µM	30.5 µM	28.1	14 µM	6.84 µM	–	–	–	–	–	–	–	–	–
CC1CC[C@@]2(OC1)OC1C[C@H]3[C@@H]4CCC5CC(O)CC[C@]5(C)[C@H]4C/C(=N\N(C)C)[C@]3(C)C1[C@@H]2C (some centres undefined)	49.8	60.3 µM	39.9 µM	58.2 µM	41.4 µM	42.6 µM	38.6 µM	84.6	> 100 µM	> 100 µM	–	–	–	–	–	–	–	–	–
CCOP(=O)(OCC)C(Nc1ccc(F)cc1)c1ccccc1 (centres undefined)	> 100	> 100 µM	> 100 µM	> 100 µM	> 100 µM	> 100 µM	> 100 µM	> 100	> 100 µM	> 100 µM	–	–	–	–	–	–	–	–	–
CCCC1(N)CC(OC)OC(C)C1O (centres undefined)	> 100	> 100 µM	> 100 µM	> 100 µM	> 100 µM	> 100 µM	> 100 µM	> 100	> 100 µM	> 100 µM	–	–	–	–	–	–	–	–	–
CCOC(=O)CC[C@H](N)C(=O)N[C@H](Cc1ccc(N(CCCl)CCCl)cc1)C(=O)OCC	5.32	10.6 µM	13.3 µM	> 47.7 µM	> 43.4 µM	4.29 µM	10.1 µM	17.7	6.55 µM	> 49.2 µM	–	–	–	–	–	–	–	–	–
